Measured values as given in patent US6455593B1, “Method of dynamic retardation of cell cycle kinetics to potentiate cell damage” (priority 1995, dated 2002).

System: human promonocytic lymphoma cells (U937)
Experiment: Microculture indicator system (MIS), MTT growth inhibition assay with bivariate serial dilutions
Assay type: cell-based
Conditions: for combined results ratio, K252a only / Combined results ratio / combined results ratio, Cisplatin only: U937; for Potentiation of DNA damage by STSP as RA: U937, concentrations less than IC40, STSP as the TCI
Procedure: Microcultures of human promonocytic lymphoma cells (U937) (“the U937 cells”) originally obtained from the American Type Culture Collection (CRL 1593) and later grown by Dr. K. Zoon at the FDA in Bethesda, Md. were set up in a multiwell plate with serial two-fold dilutions of dThd in tissue culture growth medium (RPMI 1640 plus 10% Nurserum and antibiotics). The volume of medium per well was 100 μl and the cell number per well was about 1×10^5. The plate was incubated at 37° C. for 24 hr.
A dye, 3-[4,5-dimethylthiazol-2-yl]-2,5-diphenyl-tetrazolium bromide (MTT), was used as a chromogenic indicator of the metabolically active cell mass. Viable cells metabolize the dye and accumulate a reduced formazan product (blue color) which is solubilized for colorimetry. Mossman T, J. Immunol. Methods 5:55-63 (1983); Li L and Lau B H S, In Vitro Cell Dev. Biol. 29A:531-536 (1993). The MTT assay has been established as useful for measuring either growth inhibition or population killing. Plowman, supra. The MTT method is ideal for cells tested in suspension growth, and can also be used for some cells growing in monolayers. […] Alley, supra; Hofs, supra; Wilson J K et al., Br. J. Cancer 62:189-94 (1990); Plowman, supra.
Thirty μl of 0.5% MTT in phosphate buffered saline was added to each microculture well at the appropriate time. After incubation at 37° C. for 3 hr, 120 μl of an aqueous solution of 10 % SDS with 0.01 N HCl was added to release and dissolve formazan product. This was accomplished by overnight incubation of the plate at 37° C. After careful mixing of the microwell contents by placing the plates on an orbital shaker for 5 minutes the absorbencies were quantitated by spectrophotometry at 570 nm with a Ceres UV 900 HDI microwell plate reader (from Biotek Instruments Inc, Winooski, Vt. 05404-0998). Absorbance data was normalized to a blank well containing all reagents without cells and was collected semi-automatically.
Flat-bottom 96-well plates of tissue culture quality (Corning or Costar) were set up with two-fold serial dilutions of each agent to be tested, e.g., the RA and TCI, using a multichannel pipettor with adjustable volume, e.g., Costar or Rainin, to perform serial mixing. This set-up is diagrammed in FIG. 12. […] In each plate, a total of 59 wells then contained bivariate agent combinations, the bivariate serial dilutions.
Agents were serially diluted by serial mixing in two separate plates or series of wells, and then were combined prior to addition of a fixed volume and density of the U937 cells in a suspension calculated to deliver about 1×10^5 cells per well.
Cells were added after serial dilutions of the dThd had been dispensed. Cells were dispensed at about 10×10^4 cells per microwell to provide optimal sensitivity of detection of cell damage in subsequent calorimetric assays. […] The final volume of medium was 100 μl/well. The plates were further incubated at 37° C. for a total duration of 18-24 h. The dye MTT was used as a chromogenic indicator of the residual and metabolically active cell mass. (Described in Example 1).
In this MTT assay, normalized absorbance data was collected semi-automatically from each microculture well with a Ceres UV 900 HD1 plate reader, from Biotek Instruments Inc., Winooski, V T 05404-0998, stored in an EIA file under the Ceres 900 program, transferred in comma delimited format to a floppy diskette, and imported into a spread sheet program (Borland Quattro Pro) for data manipulations.

Question: How did the “combined results ratio, K252a only” value (K252a only 15 H, K252a uM by row: r7 2, r8 1, r9 0.5, r10 0.25, r11 0.13, r12 0.06) turn out when `COC(=O)[C@@]1(O)C[C@H]2O[C@]1(C)n1c3ccccc3c3c4c(c5c6ccccc6n2c5c31)C(=O)NC4` [K252a] was run?
Answer: 1.0

Question: And the “combined results ratio, K252a only” value (K252a only 20 H, K252a nM by row: r7 625, r8 313, r9 156, r10 78.1, r11 39.1, r12 19.5)?
Answer: 1.0

Question: Which results are given for `CN(Cc1cnc2nc(N)nc(N)c2n1)c1ccc(C(=O)N[C@@H](CCC(=O)O)C(=O)O)cc1` [MTX, methotrexate]?
Answer: inhibition at 0.004 µM (Homo sapiens, U-937, U937, total 20 H, STSP 16 H, MTX 4 H, MTX 4 nM, STSP nM: 200, 100, 50, 25, 12.5, 6.25, 0): 20%; inhibition at 0.008 µM (Homo sapiens, U-937, U937, total 20 H, STSP 16 H, MTX 4 H, MTX 8 nM, STSP nM: 200, 100, 50, 25, 12.5, 6.25, 0): 38%; inhibition at […] (Homo sapiens, U-937, U937, total 20 H, STSP 16 H, MTX 4 H, MTX 16 nM, STSP nM: 200, 100, 50, 25, 12.5, 6.25, 0): 48%; inhibition at […] (Homo sapiens, U-937, U937, total 20 H, STSP 16 H, MTX 4 H, MTX 31 nM, STSP nM: 200, 100, 50, 25, 12.5, 6.25, 0): 43%; inhibition at […] (Homo sapiens, U-937, U937, total 20 H, STSP 16 H, MTX 4 H, MTX 63 nM, STSP nM: 200, 100, 50, 25, 12.5, 6.25, 0): 47%; inhibition at 0.125 µM (Homo sapiens, U-937, U937, total 20 H, STSP 16 H, MTX 4 H, MTX 125 nM, STSP nM: 200, 100, 50, 25, 12.5, 6.25, 0): 52%; inhibition at […] (Homo sapiens, U-937, U937, total 20 H, STSP 16 H, MTX 4 H, MTX 250 nM, STSP nM: 200, 100, 50, 25, 12.5, 6.25, 0): 57%; inhibition at 0.5 µM (Homo sapiens, U-937, U937, total 20 H, STSP 16 H, MTX 4 H, MTX 500 nM, STSP nM: 200, 100, 50, 25, 12.5, 6.25, 0): 62%; inhibition at 1 µM (Homo sapiens, U-937, U937, total 20 H, STSP 16 H, MTX 4 H, MTX 1000 nM, STSP nM: 200, 100, 50, 25, 12.5, 6.25, 0): 61%; Potentiation of DNA damage by STSP as RA: proved successful in potentiating DNA damage by STSP; Combined results ratio (total 20 H, STSP 16 H, MTX 4 H, MTX 4 nM, STSP nM: 200, 100, 50, 25, 12.5, 6.25, 0): 1.0; Combined results ratio (total 20 H, STSP 16 H, MTX 4 H, MTX 8 nM, STSP nM: 200, 100, 50, 25, 12.5, 6.25, 0): 1.0; Combined results ratio (total 20 H, STSP 16 H, MTX 4 H, MTX 16 nM, STSP nM: 200, 100, 50, 25, 12.5, 6.25, 0): 1.0; Combined results ratio (total 20 H, STSP 16 H, MTX 4 H, MTX 31 nM, STSP nM: 200, 100, 50, 25, 12.5, 6.25, 0): 1.0; Combined results ratio (total 20 H, STSP 16 H, MTX 4 H, MTX 63 nM, STSP nM: 200, 100, 50, 25, 12.5, 6.25, 0): 1.0; Combined results ratio (total 20 H, STSP 16 H, MTX 4 H, MTX 125 nM, STSP nM: 200, 100, 50, 25, 12.5, 6.25, 0): 1.0; Combined results ratio (total 20 H, STSP 16 H, MTX 4 H, MTX 250 nM, STSP nM: 200, 100, 50, 25, 12.5, 6.25, 0): 1.0; Combined results ratio (total 20 H, STSP 16 H, MTX 4 H, MTX 500 nM, STSP nM: 200, 100, 50, 25, 12.5, 6.25, 0): 1.0; Combined results ratio (total 20 H, STSP 16 H, MTX 4 H, MTX 1000 nM, STSP nM: 200, 100, 50, 25, 12.5, 6.25, 0): 1.0

Question: `Nc1ccn([C@@H]2O[C@H](CO)[C@@H](O)[C@@H]2O)c(=O)n1` [ara-C, 1-β-D-arabinofuranosylcytosine] was tested. Which “Potentiation of DNA damage by STSP as RA” value did it give?
Answer: proved successful in potentiating DNA damage by STSP

Question: How did the “Interaction with STSP (differential O/S plot)” value (caffeine 0.1-2 mM) turn out when `Cn1c(=O)c2c(ncn2C)n(C)c1=O` [caffeine] was run?
Answer: strongly antagonized the action of STSP

Question: For `N.N.[Cl][Pt][Cl]` [cisplatin], which “combined results ratio, Cisplatin only” value (Cisplatin only 16 H, Cisplatin uM by row: r7 *****, r8 *****, r9 *****, r10 5.00, r11 2.50, r12 1.25) is on record?
Answer: 1.0

Question: What about the “combined results ratio, Cisplatin only” value (total 19 H, cisplatin 16 H, no STSP, cisplatin uM by row: r7 80, r8 40, r9 20, r10 10, r11 5, r12 2.5) of the same molecule?
Answer: 1.0
